Here are results for 15 compounds from PubChem BioAssay (NCI).

The structures appear in SMILES notation.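 Interpolation was linear, between the two tested concentrations surrounding the appropriate level; five concentrations were tested over 48 hours in 96-well plates. Definition used: TGI = concentration required for complete inhibition of growth.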

Holding throughout (assay): NCI-60 cell line screen, 48 h
In assay [1] the test system is HS 578T breast.
The test system of assay [2] is HT29 colon.
Assay [3] has as its system K-562 leukemia.
The test system of assay [4] is NCI-H460 lung.
The test system of assay [5] is OVCAR-8 ovarian.
Assay [6] deals with SF-268 CNS.
Assay [7] deals with SK-MEL-5 melanoma.
Assay [8] deals with SNB-19 CNS.
The subject of assay [9] is TK-10 renal.
Assay [10] has as its system EKVX NSCLC.

As for `COc1ccc(NC(=S)NC(=O)c2ccc3c(c2)Sc2ccccc2O3)c([N+](=O)[O-])c1`, the TGI in [1] was 43.2 µM; in assay [2] it was > 100 µM; in assay [3], > 100 µM; in assay [4], > 100 µM; in [5] it was > 100 µM; in assay [6], 45.7 µM. For the same compound, the TGI in assay [7] is > 100 µM; in assay [8] it was 83.6 µM; in assay [9] it was 36.9 µM.

Take `CCOC(=O)C#Cc1ccccc1`: the TGI is 10.9 µM in assay [10]; 82.3 µM in assay [1]; 21.4 µM in [2]; 8.91 µM in [3]; > 100 µM in [4]; > 100 µM in assay [5]. Besides, the TGI is 17.4 µM in assay [7], > 100 µM in assay [8] and 59.9 µM in assay [9].

Take `COc1cc(NC(C)=O)ccc1C(=O)NN1C(=O)/C(=C/c2ccco2)N=C1c1ccccc1`: the TGI in [10], in assay [1], in [2], in [3], in [5] and in assay [6] was > 50 µM throughout. For the same compound, the TGI in [7] and in [8] was > 50 µM throughout.

`OCc1ccc2c(c1)CC1(Cc3ccc(/C=N/O)cc3C1)C2` (centres undefined): the TGI in assay [10] is > 100 µM; in assay [1], > 26.4 µM; in assay [2], 11.4 µM; in [4], 18.9 µM; in assay [5], 35.2 µM; in assay [6] it was > 100 µM. Moreover, the TGI was 8.25 µM in assay [7], > 100 µM in assay [8] and > 100 µM in assay [9].

For `O=c1cc(N2CCCC2)[nH]c(=O)n1-c1ccccc1`, the TGI in assay [10], in assay [2], in assay [3], in [4], in [5] and in assay [7] was > 100 µM in each case. In addition, the TGI in assay [8] and in assay [9] was > 100 µM in each case.

Regarding `CCOC(=O)/C(O)=C1\C(=O)N(C)C(=O)C1c1cccc(OC)c1` (centres undefined), the TGI in assay [10], in assay [2], in [3], in assay [4], in assay [5] and in assay [6] was > 100 µM each time. The TGI in assay [7] and in [8] was > 100 µM in each case.

Turning to `O=C(N/N=C/c1ccc(Br)cc1)N/N=C/c1ccc(Br)cc1`, the TGI in [10] was 31.3 µM; in assay [1] it was 10.8 µM; in assay [2], 26 µM; in assay [3], > 100 µM; in assay [5], 19.8 µM; in [6], 24 µM. In addition, the TGI in [7] turned out to be 31.6 µM; in assay [8] it was 16.6 µM; in assay [9] it was 5.39 µM.

As for `O=c1[nH]c(Nc2cccc(CO)c2)nc2nc[nH]c12`, the TGI in [10], in [1], in assay [2], in [3], in [5] and in assay [6] was > 100 µM in each case. Further, the TGI in assay [7], in assay [8] and in assay [9] was > 100 µM throughout.

`CC1(C)[C@H]2CC[C@@]13C(=O)N1C(=O)O[C@@H]([C@H]1Cl)C(Cl)(COCc1ccccc1)C(=O)OCCO[C@H]3C2` (some centres undefined): the TGI in assay [10], in assay [1], in assay [2], in [3], in assay [4] and in assay [5] was > 100 µM in each case. For the same compound, the TGI in [6], in assay [7] and in [8] was > 100 µM in each case.

`CCCCCCCCCc1nn2c(Cc3ccccc3)nnc2s1`: the TGI in [10] is 29.6 µM; in assay [1], 38.5 µM; in [3] it was > 100 µM; in [4] it was 39.2 µM; in assay [5], 29.8 µM; in assay [6], 32.4 µM. The TGI in [7] was 30.1 µM; in assay [8], 36.1 µM; in [9], 54.5 µM.

Turning to `O=C1CSC2=NC3=C(COC/C3=C\c3ccc(Br)cc3)C(c3ccc(Br)cc3)N12` (centres undefined), the TGI in [10], in assay [1], in assay [3], in assay [4], in assay [5] and in assay [6] was > 100 µM throughout. Moreover, the TGI in assay [7], in [8] and in assay [9] was > 100 µM throughout.

In the case of `CN(C)CCC(=O)/C=C\c1ccccc1`, the TGI is 33.9 µM in [10]; 39.2 µM in assay [2]; 36.8 µM in assay [3]; 37.5 µM in [4]; 37 µM in [5]; 31.8 µM in assay [7]. Further, the TGI in assay [8] was > 100 µM; in assay [9] it was 32.9 µM.

As to `COc1ccc(COCC[C@H](C)OC2OC(CO[Si](C)(C)C(C)(C)C)C(OC(=O)CCCN=[N+]=[N-])C(OC(=O)CCCN=[N+]=[N-])C2OC(=O)CCCN=[N+]=[N-])cc1` (some centres undefined), the TGI in assay [10] is > 100 µM; in [1], > 100 µM; in assay [2], 62.7 µM; in [4], > 100 µM; in assay [5] it was 75.8 µM; in [6] it was > 100 µM. Also, the TGI in assay [7] was 25.4 µM; in assay [9], > 100 µM.

Take `COC(=O)C1=Nc2c(C)nn(-c3ccccc3)c2N=C(c2ccccc2)C1`: the TGI in assay [1], in assay [2], in assay [3], in assay [5], in [6] and in assay [7] was > 10 µM in each case. The TGI in assay [8] and in [9] was > 10 µM each time.

In the case of `C[C@H]1SC(c2ccc(Cl)cc2Cl)N(NC(=O)c2ccncc2)C1=O` (some centres undefined), the TGI in assay [10] was 98.8 µM; in [1], > 100 µM; in assay [2] it was > 100 µM; in assay [3], > 100 µM; in [4], > 100 µM; in assay [5] it was > 100 µM. Also, the TGI in [6] was 72.3 µM; in assay [7] it was 37 µM; in assay [8], > 100 µM.
